# Tested on: recombinant guanylate cyclase reporter cell line
# Assay: Effect on a recombinant guanylate cyclase reporter cell line
# Assay type: cell-based
# Conditions: in some cases mean values for individual determinations
# Method: B-2. Effect on a Recombinant Guanvlate Cyclase Reporter Cell Line
# The cellular activity of the compounds according to the invention is determined using a recombinant guanylate cyclase reporter cell line, as described in F. Wunder et al., Anal. Biochem. 339, 104-112 (2005).
# Representative MEC values (MEC=minimum effective concentration) for the compounds of the invention are shown in the table below (in some cases as mean values for individual determinations): […]
row,SMILES,MEC (minimum effective concentration) [µM]
1,"Cc1nc2c(OCc3c(F)cccc3F)cc(Cl)cn2c1C(=O)NCC(C)(N)CC(F)F (single isomer, unassigned; enantiomer b) [Example 6, ent-N-(2-Amino-4,4-difluoro-2-methylbutyl)-6-chloro-8-[(2,6-difluorobenzyl)oxy]-2-methylimidazo[1,2-a]pyridine-3-carboxamide (enantiomer B)]",0.3
2,"Cc1nc2c(OCc3c(F)cccc3F)cc(Cl)cn2c1C(=O)NCC(C)(N)CCCF (single isomer, unassigned; enantiomer b) [Example 4, ent-N-(2-Amino-5-fluoro-2-methylpentyl)-6-chloro-8-[(2,6-difluorobenzyl)oxy]-2-methylimidazo[1,2-a]pyridine-3-carboxamide (enantiomer B)]",0.1
3,"Cc1nc2c(OCc3c(F)cccc3F)cc(Cl)cn2c1C(=O)NCC(C)(N)CF (single isomer, unassigned; enantiomer b) [Example 1, ent-N-(2-Amino-3-fluoro-2-methylpropyl)-6-chloro-8-[(2,6-difluorobenzyl)oxy]-2-methylimidazo[1,2-a]pyridine-3-carboxamide (enantiomer B)]",0.3
4,"Cc1nc2c(OCc3c(F)cccc3F)cc(Cl)cn2c1C(=O)NCC(C)(N)CCF (single isomer, unassigned; enantiomer b) [Example 9, ent-N-(2-Amino-4-fluoro-2-methylbutyl)-6-chloro-8-[(2,6-difluorobenzyl)oxy]-2-methylimidazo[1,2-a]pyridine-3-carboxamide (enantiomer B)]",0.1
5,"Cc1nc2c(OCc3c(F)cccc3F)cc(Cl)cn2c1C(=O)NCC(C)(N)CCC(F)(F)F (single isomer, unassigned; enantiomer b) [Example 2, ent-N-(2-Amino-5,5,5-trifluoro-2-methylpentyl)-6-chloro-8-[(2,6-difluorobenzyl)oxy]-2-methylimidazo[1,2-a]pyridine-3-carboxamide (enantiomer B)]",0.3
6,"Cc1nc2c(OCc3c(F)cccc3F)cc(Cl)cn2c1C(=O)NCC(C)(N)CCCF (single isomer, unassigned; enantiomer a) [Example 3, ent-N-(2-Amino-5-fluoro-2-methylpentyl)-6-chloro-8-[(2,6-difluorobenzyl)oxy]-2-methylimidazo[1,2-a]pyridine-3-carboxamide (enantiomer A)]",0.1
7,"Cc1nc2c(OCc3c(F)cccc3F)cc(Cl)cn2c1C(=O)NCC(C)(N)CCF (single isomer, unassigned; enantiomer a) [Example 8, ent-N-(2-Amino-4-fluoro-2-methylbutyl)-6-chloro-8-[(2,6-difluorobenzyl)oxy]-2-methylimidazo[1,2-a]pyridine-3-carboxamide (enantiomer A)]",0.1
8,"Cc1nc2c(OCc3c(F)cccc3F)cc(Cl)cn2c1C(=O)NCC(C)(N)CC(F)F (single isomer, unassigned; enantiomer a) [Example 5, ent-N-(2-Amino-4,4-difluoro-2-methylbutyl)-6-chloro-8-[(2,6-difluorobenzyl)oxy]-2-methylimidazo[1,2-a]pyridine-3-carboxamide (enantiomer A)]",0.3
9,"Cc1nc2c(OCc3c(F)cccc3F)cc(Cl)cn2c1C(=O)NCC(C)(N)CCF (racemic) [Example 7, rac-N-(2-Amino-4-fluoro-2-methylbutyl)-6-chloro-8-[(2,6-difluorobenzyl)oxy]-2-methylimidazo[1,2-a]pyridine-3-carboxamide (racemate)]",0.1

# Reference: patent publication US20170101407A1, “6-CHLORINE-SUBSTITUTED IMIDAZO[1,2-A]PYRIDINE CARBOXAMIDES AND THE USE THEREOF AS SOLUBLE GUANYLATE CYCLASE STIMULATORS” (Bayer Pharma Aktiengesellschaft, priority 2014, published 2017)
